Broadly, the viability is a read-out of living cells in per cent, often relative to untreated cells.

A short description of the first series: in vitro. The note with it: human, hela cells.
For `COc1ccc(C(=O)Oc2ccc(C(c3c(C)n[nH]c3O)c3c(C)n[nH]c3O)cc2)cc1` [CBK264740], the viability at 28.5 h, 10 µM stood at 112%.

The same series, now with this note: human, hela cells, % viability.
As to `C=CCOc1ccc(C(=O)C2=C(O)C(=O)N(Cc3cccnc3)C2c2ccc(Cl)cc2)c(C)c1` (centres unmarked) [CBK264716], the viability at 28.5 h, 10 µM worked out at 99.6%.
Same read-out and setting: the value for `COc1ccc(C(=O)C2=C(O)C(=O)N(CCN3CCOCC3)C2c2ccc(Cl)cc2)cc1` (centres unmarked) [CBK264718] was 103%; that for `O=C(COc1ccc(Cl)cc1Cl)Nc1cccc(NC(=O)c2ccccc2Cl)c1` [CBK264726] was 105%; that for `CC(Cn1nnc2ccccc21)C(=O)O` (centres unmarked) [CBK264727] was 117%.
For the compound `Clc1ccc(OCc2nc3ccccc3n2CCOc2ccccc2)c(Cl)c1` [CBK264728], the viability at 28.5 h, 10 µM is 94.8%.
Consider `CN(C)CCN1C(=O)C(O)=C(C(=O)c2ccc(S(=O)(=O)N(C)C)cc2)C1c1cccnc1` (centres unmarked) [CBK264729], for which the viability at 28.5 h, 10 µM is 99.7%.
The same measure, in the same setting: in the case of `c1ccc(CN2CCC(N3CCC(N4CCc5ccccc5C4)CC3)CC2)cc1` [CBK264730G] it was 91%.
Still for that read-out and setting: the value for `CCOC(=O)CN1C(=O)S/C(=C/c2cc(C)n(-c3cc(C)ccn3)c2C)C1=O` [CBK264731] was 95.2%.
Still for that read-out and setting: the value for `O=C(Nc1ccc(S(=O)(=O)Nc2nccs2)cc1)C1CC(=O)N(c2ccccc2)C1` (centres unmarked) [CBK264732] was 104%; that for `O=C(NCCSCc1ccc(Cl)cc1Cl)c1ccc(Br)cc1` [CBK264733] was 114%.
Regarding `COc1ccccc1N1CCN(C2CCN(Cc3ccc([N+](=O)[O-])cc3)CC2)CC1` [CBK264734G], the viability at 28.5 h, 10 µM worked out at 98.8%.
For `O=C(O)CCc1ccc(-c2cccs2)n1NC(=O)c1ccc(Cl)cc1` [CBK264738], the viability at 28.5 h, 10 µM stood at 95.5%.
Same read-out and setting: in the case of `Cc1ccc(N(CC(O)CNC23CC4CC(CC(C4)C2)C3)S(=O)(=O)c2ccccc2)cc1` (centres unmarked) [CBK264741] it was 110%; in that of `O=C1CC(c2ccco2)CC(=O)C1=CNCCN1CCN(C(=O)Nc2ccc(Cl)cc2)CC1` (centres unmarked) [CBK264743], 80.2%.
For `Cc1cc(/C=C2/NC(=O)NC2=O)c(C)n1-c1ccc(S(N)(=O)=O)cc1` [CBK264747], the viability at 28.5 h, 10 µM was 106%.
The same measure, in the same setting: in the case of `O=[N+]([O-])c1ccc(N2CCN(S(=O)(=O)c3ccc(Cl)cc3)CC2)cc1NCc1cccnc1` [CBK264749] it was 123%; in that of `O=C(Cc1ccc(Cl)cc1)Nc1cccc(C(=O)Nc2ccccc2C(=O)O)c1` [CBK264750], 107%; in that of `COc1cc(/C=C/C(=O)NCc2ccccn2)cc(OC)c1OC` [CBK264752], 91.5%.
On the same count and under the same terms, in the case of `Cc1ccc(OCC(=O)O/N=C(\N)c2ccccn2)cc1C` [CBK264755] it was 101%; in that of `COc1ccc(NC2=C(NCCO)C(=O)c3ccccc3C2=O)cc1` [CBK264756], 102%.
On to `O=C(CCC(=O)c1ccc(Cl)cc1)OCC(=O)c1cccc(I)c1` [CBK264760], for which the viability at 28.5 h, 10 µM was found to be 89.9%.
Still for that read-out and setting: in the case of `O=C(/C=C\c1ccccc1)CC1(O)C(=O)N(Cc2cccc3ccccc23)c2ccccc21` (centres unmarked) [CBK264761] it was 96.7%; in that of `CC(=O)Nc1ccc(C(=O)Nc2ccc(S(=O)(=O)N3CCOCC3)cc2)cc1` [CBK264763], 95.1%.
Same read-out and setting: in the case of `C#CCOc1ccc(/C=N/N=C(\N)c2nonc2N)cc1OC` [CBK264765] it was 109%; in that of `CC(=O)Nc1ccc(NC(=O)/C=C/c2ccc(Cl)cc2)cc1` [CBK264766], 116%.
With `O=[N+]([O-])c1ccccc1S(=O)(=O)Nc1ccc(S(=O)(=O)Nc2ncccn2)cc1` [CBK264768], the viability at 28.5 h, 10 µM was 109%.
Consider `Cc1cc(/C=C2\SC(=O)N(CC(=O)Nc3ccccc3F)C2=O)c(C)n1-c1cccnc1` [CBK264770], for which the viability at 28.5 h, 10 µM came to 95.5%.
On the same count and under the same terms, the value for `CN1CCN(c2ccc(C(=O)O)cc2)CC1` [CBK264773] was 94.8%.

(Values after paper PMC12040169 (PLOS Biology, 2025).)
